Laboratory results as given in ChEMBL document CHEMBL2177063, “Iridoid glucosides from Nyctanthes arbortristis result in increased reactive oxygen species and cellular redox homeostasis imbalance in Leishmania parasite” (Eur J Med Chem, 2012).
pIC50: −log10 of the molar value. The source made the active and inactive calls. No cut-off for these calls is given here.

Assays:
J774.A1 = test: Cytotoxicity against mouse J774A1 cells at 1 to 100 uM after 48 hrs by MTT assay; type: cell-based; settings: j774.a1, 48 h
[1] = Cytotoxicity against human HEK293 cells assessed as cell viability at 100 uM after 48 hrs by MTT assay relative to control; type: cell-based; settings: read-out: Activity
[2] = Cytotoxicity against human HEK293 cells assessed as cell viability at 4 uM after 48 hrs by MTT assay relative to control; type: cell-based; settings: read-out: Activity
Leishmania donovani [3] = test: Antileishmanial activity against axenic form of Leishmania donovani DD8 after 48 hrs by MTT assay; type: functional, organism-based; settings: DD8, 48 h
Leishmania donovani [4] = test: Antileishmanial activity against promastigote form of Leishmania donovani DD8 after 48 hrs by MTT assay; type: functional, organism-based; settings: DD8, 48 h
Leishmania donovani [5] = test: Antileishmanial activity against amastigote form of Leishmania donovani DD8 infected in mouse J774A1 cells at 100 uM after 48 hrs by ethidium bromide/acridine orange staining-based fluorescence microscopic analysis; type: functional, organism-based; settings: J774.A1
Leishmania donovani [6] = test: Antileishmanial activity against amastigote form of Leishmania donovani DD8 infected in mouse J774A1 cells at 10 uM after 48 hrs by ethidium bromide/acridine orange staining-based fluorescence microscopic analysis; type: functional, organism-based; settings: J774.A1
Leishmania donovani [7] = test: Antileishmanial activity against promastigote form of Leishmania donovani DD8 assessed as cell death at 200 uM from 12 to 48 hrs by ethidium bormide/acridine orange staining-based fluorescence microscopic analysis; type: functional, organism-based
Leishmania donovani [8] = test: Induction of necrosis in promastigote form of Leishmania donovani DD8 assessed as necrotic cells at 20 uM after 24 hrs by FITC-annexinV/PI-based flow cytometric analysis (reference value: 1.31%); type: functional
Leishmania donovani [9] = test: Induction of apoptosis in promastigote form of Leishmania donovani DD8 assessed as late apoptotic cells at 20 uM after 24 hrs by FITC-annexinV/PI-based flow cytometric analysis (reference value: 3.4%); type: functional
Leishmania donovani [10] = test: Induction of apoptosis in promastigote form of Leishmania donovani DD8 assessed as early apoptotic cells at 20 uM after 24 hrs by FITC-annexinV/PI-based flow cytometric analysis (reference value: 2.61%); type: functional
Leishmania donovani [11] = test: Induction of apoptosis in promastigote form of Leishmania donovani DD8 assessed as viable cells at 20 uM after 24 hrs by FITC-annexinV/PI-based flow cytometric analysis (reference value: 92.68%); type: functional
Leishmania donovani [12] = test: Induction of oxidative stress in axenic form of Leishmania donovani DD8 assessed as increase in ROS level at 20 uM by CM-H2DCFDA-based flow cytometric analysis; type: functional, organism-based
Leishmania donovani [13] = test: Induction of oxidative stress in promastigote form of Leishmania donovani DD8 assessed as increase in ROS level at 20 uM by CM-H2DCFDA-based flow cytometric analysis; type: functional, organism-based
Leishmania donovani [14] = test: Induction of oxidative stress in axenic form of Leishmania donovani DD8 assessed as change in cell surface topology at 20 uM by CM-H2DCFDA-based flow cytometric analysis; type: functional, organism-based
Leishmania donovani [15] = test: Induction of oxidative stress in promastigote form of Leishmania donovani DD8 assessed as change in cell surface topology at 20 uM by CM-H2DCFDA-based flow cytometric analysis; type: functional, organism-based
Leishmania donovani [16] = test: Induction of oxidative stress in amastigote form of Leishmania donovani DD8 assessed as increase in ROS level at 5 to 20 uM up to 48 hrs by CM-H2DCFDA-based fluorimetric analysis; type: functional, organism-based
Leishmania donovani [17] = test: Induction of oxidative stress in promastigote form of Leishmania donovani DD8 assessed as increase in ROS level at 5 to 20 uM up to 48 hrs by CM-H2DCFDA-based fluorimetric analysis; type: functional, organism-based
[18] = biological target: Trypanothione reductase (Leishmania donovani) (UniProt P39050); test: Inhibition of Leishmania donovani DD8 axenic form trypanothione reductase assessed as decrease in reduced thiol level at 100 uM after 48 hrs by DTNB-based spectrophotometric analysis relative to control
[19] = biological target: Trypanothione reductase (Leishmania donovani) (UniProt P39050); test: Inhibition of Leishmania donovani DD8 axenic form trypanothione reductase assessed as decrease in reduced thiol level at 100 uM after 12 hrs by DTNB-based spectrophotometric analysis relative to control
[20] = biological target: Trypanothione reductase (Leishmania donovani) (UniProt P39050); test: Inhibition of Leishmania donovani DD8 axenic form trypanothione reductase assessed as decrease in reduced thiol level at 3.125 uM after 48 hrs by DTNB-based spectrophotometric analysis relative to control
[21] = biological target: Trypanothione reductase (Leishmania donovani) (UniProt P39050); test: Inhibition of Leishmania donovani DD8 axenic form trypanothione reductase assessed as decrease in reduced thiol level at 3.125 uM after 12 hrs by DTNB-based spectrophotometric analysis relative to control
[22] = biological target: Trypanothione reductase (Leishmania donovani) (UniProt P39050); test: Inhibition of Leishmania donovani DD8 promastigote form trypanothione reductase assessed as decrease in reduced thiol level at 100 uM after 48 hrs by DTNB-based spectrophotometric analysis relative to control
[23] = biological target: Trypanothione reductase (Leishmania donovani) (UniProt P39050); test: Inhibition of Leishmania donovani DD8 promastigote form trypanothione reductase assessed as decrease in reduced thiol level at 100 uM after 12 hrs by DTNB-based spectrophotometric analysis relative to control
[24] = biological target: Trypanothione reductase (Leishmania donovani) (UniProt P39050); test: Inhibition of Leishmania donovani DD8 promastigote form trypanothione reductase assessed as decrease in reduced thiol level at 3.125 uM after 48 hrs by DTNB-based spectrophotometric analysis relative to control
[25] = biological target: Trypanothione reductase (Leishmania donovani) (UniProt P39050); test: Inhibition of Leishmania donovani DD8 promastigote form trypanothione reductase assessed as decrease in reduced thiol level at 3.125 uM after 12 hrs by DTNB-based spectrophotometric analysis relative to control

Trypanothione reductase (Leishmania donovani), sequence (P39050 whole entry): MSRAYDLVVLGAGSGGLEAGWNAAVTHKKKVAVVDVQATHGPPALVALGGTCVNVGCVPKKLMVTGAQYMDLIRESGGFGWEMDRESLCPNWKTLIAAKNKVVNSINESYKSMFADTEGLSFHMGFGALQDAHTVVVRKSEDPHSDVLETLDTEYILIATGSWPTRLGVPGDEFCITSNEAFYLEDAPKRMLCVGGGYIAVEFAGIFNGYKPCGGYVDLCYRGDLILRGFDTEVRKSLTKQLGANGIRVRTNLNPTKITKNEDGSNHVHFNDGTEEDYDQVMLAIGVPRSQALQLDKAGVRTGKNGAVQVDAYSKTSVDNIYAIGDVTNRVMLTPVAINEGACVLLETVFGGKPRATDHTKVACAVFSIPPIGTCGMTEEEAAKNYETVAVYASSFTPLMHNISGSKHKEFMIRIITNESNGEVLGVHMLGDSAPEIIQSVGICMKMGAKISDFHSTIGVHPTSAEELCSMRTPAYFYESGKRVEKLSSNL

Row | Structure (SMILES) | Activity (J774.A1) | viability at 48 h, 100 µM [1] [%] | viability at 48 h, 4 µM [2] [%] | pIC50 (Leishmania donovani [3]) | pIC50 (Leishmania donovani [4]) | Activity (Leishmania donovani [5]) | Activity (Leishmania donovani [6]) | Activity (Leishmania donovani [7]) | Activity (Leishmania donovani [8]) [%] | Activity (Leishmania donovani [9]) [%] | Activity (Leishmania donovani [10]) [%] | Activity (Leishmania donovani [11]) [%] | Activity (Leishmania donovani [12]) | Activity (Leishmania donovani [13]) | Activity (Leishmania donovani [14]) | Activity (Leishmania donovani [15]) | Activity (Leishmania donovani [16]) | Activity (Leishmania donovani [17]) | inhibition [18] [%] | inhibition [19] [%] | also measured
1 | COC(=O)C1=CO[C@@H](O[C@@H]2O[C@H](CO)[C@@H](O)[C@H](O)[C@H]2O)[C@@H]2[C@@H](C)[C@@H](OC(=O)/C=C/c3ccc(OC)cc3)[C@@H](O)[C@H]12 [ARBORTRISTOSIDE A] | Non-toxic | 71.2 | 95.5 | 5.14 | 5.49 | Active | Active | Active | 10.33 | 2.13 | 26.3 | 61.24 | Active | Active | Active | Active | Active | Active | 41.9 | 65.8 | inhibition [20]: 73.4%; inhibition [21]: 97.9%; inhibition [22]: 33.8%; inhibition [23]: 60.1%; inhibition [24]: 63.7%; inhibition [25]: 92.5%
2 | COC(=O)C1=CO[C@@H](O[C@@H]2O[C@H](CO)[C@@H](O)[C@H](O)[C@H]2O)[C@@H]2[C@@H](CO)[C@@H](OC(=O)/C=C/c3ccc(O)c(O)c3)[C@@H](O)[C@H]12 [ARBORTRISTOSIDE B] | Non-toxic | 54.8 | 93.6 | 5.12 | 5.46 | Active | Active | Active | 13.52 | 2.96 | 31.04 | 52.48 | Active | Active | Active | Active | Active | Active | 46.9 | 67.9 | inhibition [20]: 77.5%; inhibition [21]: 96.9%; inhibition [22]: 41.9%; inhibition [23]: 63.6%; inhibition [24]: 67.9%; inhibition [25]: 92.6%
3 | COC(=O)C1=CO[C@@H](O[C@@H]2O[C@H](CO)[C@@H](O)[C@H](O)[C@H]2O)[C@@H]2[C@@H](C)[C@@H](OC(=O)/C=C/c3ccc(O)cc3)[C@@H](O)[C@H]12 [ARBORTRISTOSIDE C] | Non-toxic | 48.6 | 89.6 | 5.05 | 5.30 | Active | Active | Active | 10 | 2.51 | 36.59 | 50.9 | Active | Active | Active | Active | Active | Active | 51.7 | 67.8 | inhibition [20]: 82.8%; inhibition [21]: 97.7%; inhibition [22]: 46.9%; inhibition [23]: 62.7%; inhibition [24]: 78.9%; inhibition [25]: 95.3%
